Assay results published in PubChem BioAssay AID1205 (EPA DSSTox, 2008).
Calls of active or inactive are those of the source.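 Rule for the calls: active = tumour findings in long-term animal cancer tests in more than one sex, species or organ; inactive = no tumour finding and more than one negative test.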 *1 amine or outer side, *2 acyl side, *3 side chain or, on linkers, in order; H or OH if unused. Where a SMILES comes first, the peptide text is derived from it. Bridges are numbered along the chain shown (N, C = ends). Roman numbers before positions name the chains, in order. [ ]: non-standard residue; d: D form. Actinocin(9to1) = Cc1c2oc3c(C)ccc(C(=O)[*:1])c3nc-2c(C(=O)[*:2])c(N)c1=O; NMeV = CN[C@H](C(=O)O)C(C)C; Sar = CNCC(=O)O

Experiment: DSSTox (CPDBAS) Carcinogenic Potency Database Summary MultiCellCall Results
Conditions: animal carcinogenicity bioassays, multi-cell call summary
Summary of the method: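 ActivityScore sums 50 for multispecies, 30 for multisex and 20 for multisite positivity. Based on the most positive experiment per sex-species across standardised chronic rodent and other animal cancer tests.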

| Compound | outcome |
| --- | --- |
| O=C(O)C(Cl)Cl | active; multisex active; multispecies active |
| O=Nc1ccc(Nc2ccccc2)cc1 | active; multispecies active |
| CC(C)[N+](=O)[O-] | inactive; multisex inactive |
| Nc1nnc(-c2ccc([N+](=O)[O-])o2)s1 | active; multisite active |
| Cc1cc(O)c2c(c1)C(=O)c1cc(O)cc(O)c1C2=O | inactive; multisex inactive; multispecies inactive |
| CC(=O)Nc1ccc(OCC(O)CNC(C)C)cc1 (centres undefined) | inactive; multisex inactive; multispecies inactive |
| CN(C)CCOC(c1ccccc1)c1ccccc1 | inactive; multisex inactive; multispecies inactive |
| NC(N)=Nc1nc(CSCCNc2nsnc2N)cs1 | active; multisex active |
| Nc1ccc2c(n1)[nH]c1ccccc12 | active; multisite active; multisex active |
| CC1=NN(c2ccccc2)C(=O)C1 | inactive; multisex inactive; multispecies inactive |
| CC/C(C)=N/O | active; multispecies active |
| Cc1cccc2ccccc12 | inactive; multisex inactive |
| COc1ccc2c3c1O[C@H]1[C@@H](O)C=C[C@H]4[C@@H](C2)N(C)CC[C@@]341 | inactive; multisex inactive; multispecies inactive |
| CCC(Br)(CC)C(=O)NC(N)=O | inactive; multisex inactive; multispecies inactive |
| CCCCN(CC)C(=O)SCCC | inactive; multisex inactive |
| CC[N+]([O-])=NC | active; multisite active |
| CN(C)CCN(Cc1cccs1)c1ccccn1 | active; multisex active |
| O=NN1CCNCC1 | active; multisite active; multisex active |
| NC(=O)NNc1ccccc1 | active; multisex active |
| CCn1nc(C)c2c1C(c1ccccc1)=NCC(=O)N2 | active; multisex active |
| CNNC | active; multisite active; multisex active; multispecies active |
| CN(C)CCC(c1ccc(Cl)cc1)c1ccccn1 (centres undefined) | inactive; multisex inactive; multispecies inactive |
| CC(C)(C)c1cc(CO)cc(C(C)(C)C)c1O | inactive; multisex inactive |

| Compound | outcome |
| --- | --- |
| CS(=O)(=O)c1ccc([C@@H](O)[C@@H](CO)NC(=O)C(Cl)Cl)cc1 | inactive; multisex inactive |
| CN(N=O)C1=Nc2ccc(Cl)cc2C(c2ccccc2)=[N+]([O-])C1 | inactive; multisex inactive |
| O=C1c2ccccc2C(=O)c2c(O)cccc21 | active; multisite active |
| Cc1nnc2n1-c1sc(CCc3ccc(CC(C)C)cc3)cc1C(c1ccccc1Cl)=NC2C (centres undefined) | inactive; multisex inactive |
| O=S1OCC2C(CO1)C1(Cl)C(Cl)=C(Cl)C2(Cl)C1(Cl)Cl (centres undefined) | inactive; multisex inactive; multispecies inactive |
| CC(=O)CN(N=O)C(=O)NCCCl | active; multisex active |
| O=C(O)C(Cl)(Cl)Cl | active; multisex active |
| CC(=O)Nc1nc(-c2ccc([N+](=O)[O-])o2)cs1 | active; multisite active; multisex active; multispecies active |
| CCN(CC)C(=S)S[Te](SC(=S)N(CC)CC)(SC(=S)N(CC)CC)SC(=S)N(CC)CC | inactive; multisex inactive; multispecies inactive |
| O=C(O)CN(CCN(CC(=O)O)CC(=O)O)CC(=O)O | inactive; multisex inactive; multispecies inactive |
| NC(=S)Nc1cccc2ccccc12 | inactive; multisex inactive |
| CC(CN1c2ccccc2Sc2ccccc21)N(C)C (centres undefined) | inactive; multisex inactive; multispecies inactive |
| Oc1ccccc1-c1ccccc1 | active; multisite active; multisex active |
| COc1ccc([N+](=O)[O-])cc1N=Nc1c(O)c(C(=O)Nc2cccc([N+](=O)[O-])c2)cc2ccccc12 | inactive; multisex inactive; multispecies inactive |
| Clc1ccc2c(c1)Oc1ccc(Cl)cc1O2 | inactive; multisex inactive; multispecies inactive |
| C=CC(=O)NCO | active; multisite active; multisex active |
| CN(C)N=O | active; multisite active; multisex active; multispecies active |
| c1ccc2c(c1)cc1ccc3cccc4ccc2c1c34 | active; multisite active; multisex active; multispecies active |
| c1cc(OCC2CO2)cc(OCC2CO2)c1 (centres undefined) | active; multisex active; multispecies active |
| CCCCNC(=O)NS(=O)(=O)c1ccc(C)cc1 | inactive; multisex inactive; multispecies inactive |
| Nc1ccc(Cl)c(N)c1 | active; multisite active; multisex active; multispecies active |
| CC(O)CN(CCO)N=O (centres undefined) | active; multisite active |
| O=NN(CC(F)(F)F)CC(F)(F)F | inactive; multisex inactive |

| Compound | outcome |
| --- | --- |
| CN1[C@@H]2CC[C@H]1CC(OC(=O)C(CO)c1ccccc1)C2 (some centres undefined) | inactive; multisex inactive |
| COc1ccccc1N1CCN(CCCNc2cc(=O)n(C)c(=O)n2C)CC1 | inactive; multisex inactive |
| COP(=S)(OC)SCn1nnc2ccccc2c1=O | inactive; multisex inactive; multispecies inactive |
| CNC(=O)CSP(=S)(OC)OC | inactive; multisex inactive; multispecies inactive |
| ClC(Cl)Br | active; multisite active; multisex active; multispecies active |
| Cc1c2oc3c(C)ccc(C(=O)N[C@@H]4C(=O)N[C@H](C(C)C)C(=O)N5CCC[C@H]5C(=O)N(C)CC(=O)N(C)[C@@H](C(C)C)C(=O)O[C@@H]4C)c3nc-2c(C(=O)N[C@@H]2C(=O)N[C@H](C(C)C)C(=O)N3CCC[C@H]3C(=O)N(C)CC(=O)N(C)[C@@H](C(C)C)C(=O)O[C@@H]2C)c(N)c1=O (I: T[dV]P[Sar][NMeV] / II: T[dV]P[Sar][NMeV]; ester I:1-I:C, II:1-II:C; linker I:N-II:N via Actinocin(9to1)) | active; multisex active |
| O=C1NCCN1/N=C/c1ccc([N+](=O)[O-])o1 | active; multisite active |
| CC1=C(C(=O)OC(C)C)C(c2cccc([N+](=O)[O-])c2)C(C(=O)OC2CN(C(c3ccccc3)c3ccccc3)C2)=C(N)N1 (centres undefined) | inactive; multisex inactive; multispecies inactive |
| COCCl | active; multispecies active |
| C[C@]12C=CC(=O)C=C1CC[C@@H]1[C@@H]2C(=O)C[C@@]2(C)[C@H]1CC[C@]2(O)C(=O)CO | inactive; multisex inactive |
| Clc1ccc(Cl)cc1 | active; multisite active; multisex active; multispecies active |
| O=NN1CC=CCC1 | active; multisite active |
| NNc1nc(-c2ccc([N+](=O)[O-])cc2)cs1 | active; multisite active; multispecies active |
| Cc1ccccc1N=O | active; multisite active |
| OCc1ccccc1 | inactive; multisex inactive; multispecies inactive |
| Brc1cc(Br)c(-c2cc(Br)c(Br)cc2Br)cc1Br | active; multisex active; multispecies active |
| O=C(O)c1cc(Oc2ccc(C(F)(F)F)cc2Cl)ccc1[N+](=O)[O-] | active; multisite active; multisex active |
| O=[N+]([O-])c1ccc2c(c1)Cc1ccccc1-2 | active; multisite active |
| O=c1ccc2ccccc2o1 | active; multisite active; multisex active; multispecies active |
| Cn1c(=O)c2[nH]cnc2n(C)c1=O | inactive; multisex inactive; multispecies inactive |
| CN(N)C=O | active; multisite active; multisex active; multispecies active |
| ClCCCl | active; multisite active; multisex active; multispecies active |
| O=C(O)c1cccnc1 | inactive; multisex inactive |
